Measured values reported in US8691827B2, “Amino tetrahydro-pyridopyrimidine PDE10 inhibitors” (Merck Sharp & Dohme Corp., priority 2009, dated 2014).

Target: human PDE10A2 (Homo sapiens (Human), UniProt Q9Y233)
Assay: PDE10 fluorescence polarization (IMAP FP) inhibition assay
Format: biochemical
Details: FAM-labeled cAMP 50 nM, room temperature, read-out: PDE10A Ki
Experimental: The activity of the compounds in accordance with the present invention as PDE10 inhibitors may be readily determined without undue experimentation using a fluorescence polarization (FP) methodology that is well known in the art (Huang, W., et al., J. Biomol Screen, 2002, 7: 215).
In a typical experiment the PDE10 inhibitory activity of the compounds of the present invention was determined in accordance with the following experimental method. PDE10A2 was amplified from human fetal brain cDNA (Clontech, Mountain View, Calif.) using a forward primer corresponding to nucleotides 56-77 of human PDE10A2 (Accession No. AF127480, Genbank Identifier 4894716), containing a Kozak consensus sequence, and a reverse primer corresponding to nucleotides 2406-2413 of human PDE10A2 (Accession No. AF127480, Genbank Identifier 4894716). Amplification with Easy-A polymerase (Stratagene, La Jolla, Calif.) was 95° C. for 2 minutes followed by thirty three cycles of 95° C. for 40 seconds, 55° C. for 30 seconds, and 72° C. for 2 minutes 48 seconds. Final extension was 72° C. for 7 minutes. The PCR product was TA cloned into pcDNA3.2-TOPO (Invitrogen, Carlsbad, Calif.) according to standard protocol. AD293 cells with 70-80% confluency were transiently transfected with human PDE10A2/pcDNA3.2-TOPO using Lipofectamine 2000 according to manufacturer specifications (Invitrogen, Carlsbad, Calif.). Cells were harvested 48 hours post-transfection and lysed by sonication (setting 3, 10×5 sec pulses) in a buffer containing 20 mM HEPES, 1 mM EDTA and protease inhibitor cocktail (Roche). Lysate was collected by centrifugation at 75,000×g for 20 minutes. Supernatant containing the cytoplasmic fraction was used for evaluation of PDE10A2 activity. The fluorescence polarization assay for cyclic nucleotide phosphodiesterases was performed using an IMAP® FP kit supplied by Molecular Devices, Sunnyvale, Calif. (product # R8139). IMAP® technology has been applied previously to phosphodiesterase assays (Huang, W., et al., J. Biomol Screen, 2002, 7: 215). Assays were performed at room temperature in 384-well microtiter plates with an incubation volume of 20.2 μL. Solutions of test compounds were prepared in DMSO and serially diluted with DMSO to yield 8 μL of each of 10 solutions differing by 3-fold in concentration, at 32 serial dilutions per plate. 100% inhibition is determined using a known PDE10 inhibitor, which can be any compound that is present at 5,000 times its Ki value in the assay described as follows, such as papaverine (see Siuciak, et al. Neuropharmacology (2006) 51:386-396; Becker, et al. Behav Brain Res (2008) 186(2):155-60; Threlfell, et al., J Pharmacol Exp Ther (2009) 328(3):785-795), 2-{4-[pyridin-4-yl-1-(2,2,2-trifluoroethyl)-1H-pyrazol-3-yl]phenoxymethyl}quinoline succinic acid or 2-[4-(1-methyl-4-pyridin-4-yl-1H-pyrazol-3-yl)-phenoxymethyl]quinoline succinic acid (see Schmidt, et al. J Pharmacol Exp Ther (2008) 325:681-690; Threlfell, et al., J Pharmacol Exp Ther (2009) 328(3): 785-795). 0% of inhibition is determined by using DMSO (1% final concentrations). A Labcyte Echo 555 (Labcyte, Sunnyvale, Calif.) is used to dispense 200 nL from each well of the titration plate to the 384 well assay plate. A solution of enzyme ( 1/1600 dilution from aliquots; sufficient to produce 20% substrate conversion) and a separate solution of FAM-labeled cAMP PDE from Molecular Devices (product # R7506), at a final concentration of 50 nM are made in the assay buffer (10 mM Tris HCl, pH 7.2, 10 mM MgCl2, 0.05% NaN3 0.01% Tween-20, and 1 mM DTT). The enzyme and the substrate are then added to the assay plates in two consecutive additions of 10 μL, and then shaken to mix. The reaction is allowed to proceed at room temperature for 30 minutes. A binding solution is then made from the kit components, comprised of 80% Solution A, 20% Solution B and binding reagent at a volume of 1/600 the total binding solution. […]

Sequence of human PDE10A2 (Q9Y233 267-1055): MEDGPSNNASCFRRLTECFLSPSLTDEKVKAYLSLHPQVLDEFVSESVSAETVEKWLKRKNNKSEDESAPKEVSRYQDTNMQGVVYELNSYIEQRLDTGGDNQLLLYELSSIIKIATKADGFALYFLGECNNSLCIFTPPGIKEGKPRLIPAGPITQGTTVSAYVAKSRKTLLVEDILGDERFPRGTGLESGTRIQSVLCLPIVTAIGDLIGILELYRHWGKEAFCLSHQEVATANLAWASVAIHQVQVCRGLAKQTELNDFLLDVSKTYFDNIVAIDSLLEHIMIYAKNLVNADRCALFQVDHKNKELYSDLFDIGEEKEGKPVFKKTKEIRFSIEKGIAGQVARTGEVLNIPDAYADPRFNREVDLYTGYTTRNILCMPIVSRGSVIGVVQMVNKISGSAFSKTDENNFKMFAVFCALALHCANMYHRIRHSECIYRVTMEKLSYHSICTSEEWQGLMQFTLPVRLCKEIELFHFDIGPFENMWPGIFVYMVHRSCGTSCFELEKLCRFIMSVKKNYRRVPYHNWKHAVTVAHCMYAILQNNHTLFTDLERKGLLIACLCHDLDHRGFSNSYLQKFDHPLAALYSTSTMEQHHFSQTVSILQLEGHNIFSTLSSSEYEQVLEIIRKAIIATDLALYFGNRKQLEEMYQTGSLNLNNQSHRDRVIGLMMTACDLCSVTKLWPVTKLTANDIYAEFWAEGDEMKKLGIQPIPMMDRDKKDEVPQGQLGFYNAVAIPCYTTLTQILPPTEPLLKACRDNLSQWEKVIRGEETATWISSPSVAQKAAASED

Ki | Compound
95.3 nM | COC(=O)NCCNc1nc(-c2cccnc2)nc2c1CN(C(=O)Nc1ccccc1)CC2 [Compound 1-5, methyl-(2-{[6-(anilinocarbonyl)-2-pyridin-3-yl-5,6,7,8-tetrahydropyrido[4,3-d]pyrimidin-4-yl]amino}ethyl)carbamate]
47.9 nM | O=C(Nc1ccccc1)N1CCc2nc(-c3ccncc3)nc(NCCc3ccccn3)c2C1 [Compound 1-1, N-phenyl-2-pyridin-4-yl-4-[(2-pyridin-2-ylethyl)amino]-7,8-dihydropyrido[4,3-d]pyrimidine-6(5H)-carboxamide]
114 nM | O=C(Nc1ccccc1)N1CCc2nc(-c3ccc(F)nc3)nc(NCCc3ccccn3)c2C1 [Compound 1-6, 2-(6-fluoropyridin-3-yl)-N-phenyl-4-[(2-pyridin-2-ylethyl)amino]-7,8-dihydropyrido[4,3-d]pyrimidine-6(5H)-carboxamide]
162 nM | O=C(Nc1ccccc1)N1CCc2nc(-c3ccncc3)nc(N3CCc4ccncc4C3)c2C1 [Compound 1-3, 4-(3,4-dihydro-2,7-naphthyridin-2(1H)-yl)-N-phenyl-2-pyridin-4-yl-7,8-dihydropyrido[4,3-d]pyrimidine-6(5H)-carboxamide]
2.19 nM | O=C(Nc1ccccc1)N1CCc2nc(-c3cccnc3)nc(NCc3c[nH]c(-c4ccccc4)n3)c2C1 [Compound 1-9, N-phenyl-4-{[(2-phenyl-1H-imidazol-4-yl)methyl]amino}-2-(pyridin-3-yl)-7,8-dihydropyrido[4,3-d]pyrimidine-6(5H)-carboxamide]
153 nM | COc1cccc(C2CN(c3nc(-c4cccnc4)nc4c3CN(C(=O)Nc3ccccc3)CC4)CCN2)c1 (stereo not drawn) [Compound 1-4, 4-[3-(3-methoxyphenyl)-piperazin-1-yl]-N-phenyl-2-pyridin-3-yl-7,8-dihydropyrido[4,3-d]pyrimidine-6(5H)-carboxamide]
15 nM | CC(C)CC(=O)N1CCc2nc(-c3cncc(-c4cn[nH]c4)c3)nc(N(C)Cc3ccccc3)c2C1 [Compound 1-8, 1-{4-[benzyl(methyl)amino]-2-[5-(1H-pyrazol-4-yl)pyridin-3-yl]-7,8-dihydropyrido[4,3-d]pyrimidin-6(5H)-yl}-3-methylbutan-1-one]
192 nM | O=C(Nc1ccccc1)N1CCc2nc(-c3ccncc3)nc(NCc3ccccn3)c2C1 [Compound 1-2, N-phenyl-2-pyridin-4-yl-4-[(pyridin-2-ylmethyl)amino]-7,8-dihydropyrido[4,3-d]pyrimidine-6(5H)-carboxamide]
63 nM | CC(C)CC(=O)N1CCc2nc(-c3cncc(-c4cncnc4)c3)nc(N(C)Cc3ccccc3)c2C1 [Compound 1-7, 1-{4-[benzyl(methyl)amino]-2-[5-(pyrimidin-5-yl)pyridin-3-yl[-7,8-dihydropyrido]4,3-d]pyrimidin-6(5H)-yl}-3-methylbutan-1-one]
